Tested on: bone volume in ovariectomized rats
Experiment: Change in bone volume by microCT in ovariectomized rat model of osteoporosis
Type: in vivo
Conditions: OVX female rats, 60 μg/kg/day subcutaneous daily for 8 weeks starting 8 weeks after surgery; at 16 weeks post-ovariectomy; compared with sham, OVX-BP, OVX-PTH and weekly BP-PEG-PTH groups
Source text: Sixty female rats were divided into five groups and evaluated using the ovariectomy procedure (OVX): control (sham-operated; n=12), ovariectomy with bisphosphonate treatment (OVX-BP; n=12), OVX with teriparatide treatment (OVX-PTH; daily; n=12), OVX with daily BP-PEG-PTH treatment (n=12), and OVX with weekly BP-PEG-PTH treatment (n=12), where BP is 2-[(3-mercaptopropyl)thio]ethane-1,1-diyl}bis(phosphonic acid). Rats were ovariectomized at week 0 and the control group underwent a sham ovariectomy. Rats were left untreated for 8 weeks after surgery to allow for osteopenia to develop. After 8 weeks, rats in the OVX-PTH group received daily subcutaneous injections of PTH (60 μg/kg/day) for 8 weeks. Rats in the OVX-BP group received daily doses of bisphosphonate. Rats in the OVX-BP-PEG-PTH daily group received daily subcutaneous injections of BP-PEG-PTH (60 μg/kg/day). Rats in the OVX-BP-PEG-PTH weekly group received weekly subcutaneous injections of BP-PEG-PTH (60 μg/kg/week).
In vivo change in bone volume was measured by micro-computed tomography (microCT).

Substance: BP-PEG-PTH: hPTH (1-34) conjugated via Maleimide-PEG3500-NHS linker to thiol-bisphosphonate 2-[(3-mercaptopropyl)thio]ethane-1,1-diyl}bis(phosphonic acid)
- In vivo change in bone volume (microCT): greatest increase in bone volume

Reference: patent publication US9718868B2, “Parathyroid hormone, insulin, and related peptides conjugated to bone targeting moieties and methods and making and using thereof” (THE GOVERNORS OF THE UNIVERSITY OF ALBERTA, priority 2012, dated 2017)
